Laboratory results published in ChEMBL document CHEMBL1201862, “PubChem BioAssay data set” (2004).
The source made the active and inactive calls.

What was measured:
Interleukin-8 [1] = biological target: T1, Interleukin-8 (Homo sapiens, UniProt P10145); experiment: SAR analysis of Tumor necrosis factor alpha (TNF-alpha) induced IL-8 secretion in MCF-7/NOD1 cells - Set 2. [Related pubchem assays (depositor defined):AID1575, AID2250, AID2260]; assay type: functional, cell-based
T1 sequence (P10145 whole entry): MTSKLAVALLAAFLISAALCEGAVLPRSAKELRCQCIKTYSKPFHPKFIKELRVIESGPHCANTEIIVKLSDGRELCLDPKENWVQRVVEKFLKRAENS

[2] = biological target: T2, Nucleotide-binding oligomerization domain-containing protein 2 (Homo sapiens, UniProt Q9HC29); experiment: inhibition of NOD2 signaling – set 2, SAR follow-up (AID 2475); assay type: functional
T2 sequence (Q9HC29 whole entry, the tested form may be a part): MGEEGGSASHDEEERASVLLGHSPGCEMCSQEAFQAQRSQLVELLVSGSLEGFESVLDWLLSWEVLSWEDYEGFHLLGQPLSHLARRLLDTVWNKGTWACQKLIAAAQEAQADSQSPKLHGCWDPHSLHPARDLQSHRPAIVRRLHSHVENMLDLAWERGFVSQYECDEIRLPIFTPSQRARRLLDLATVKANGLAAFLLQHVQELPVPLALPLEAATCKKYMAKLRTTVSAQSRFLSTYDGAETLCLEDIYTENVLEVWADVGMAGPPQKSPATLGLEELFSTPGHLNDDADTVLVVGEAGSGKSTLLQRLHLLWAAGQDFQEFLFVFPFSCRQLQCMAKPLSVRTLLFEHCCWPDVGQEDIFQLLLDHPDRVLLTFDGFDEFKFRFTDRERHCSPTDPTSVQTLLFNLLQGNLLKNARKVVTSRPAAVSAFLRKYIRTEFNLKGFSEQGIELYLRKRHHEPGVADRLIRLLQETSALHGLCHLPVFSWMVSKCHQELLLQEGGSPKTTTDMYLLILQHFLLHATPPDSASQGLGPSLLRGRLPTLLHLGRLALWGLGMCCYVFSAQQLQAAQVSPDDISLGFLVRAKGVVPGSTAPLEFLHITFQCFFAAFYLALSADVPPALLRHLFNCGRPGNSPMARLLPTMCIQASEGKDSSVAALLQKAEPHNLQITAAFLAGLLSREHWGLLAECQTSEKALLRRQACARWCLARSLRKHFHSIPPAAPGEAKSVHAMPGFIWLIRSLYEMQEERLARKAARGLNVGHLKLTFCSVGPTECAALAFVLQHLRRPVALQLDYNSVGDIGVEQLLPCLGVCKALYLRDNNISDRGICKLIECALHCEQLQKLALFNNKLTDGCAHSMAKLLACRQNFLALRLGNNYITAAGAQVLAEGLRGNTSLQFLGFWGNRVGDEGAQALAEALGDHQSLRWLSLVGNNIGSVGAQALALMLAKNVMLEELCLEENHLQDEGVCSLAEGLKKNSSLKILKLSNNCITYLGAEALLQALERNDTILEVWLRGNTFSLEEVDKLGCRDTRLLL

[3] = biological target: T3, Nucleotide-binding oligomerization domain-containing protein 1 (Homo sapiens, UniProt Q9Y239); experiment: SAR analysis of compounds that inhibit NOD1 - Set 2. [Related pubchem assays (depositor defined):AID1566, AID1575, AID1578, AID1849, AID1852, AID2333, AID2335, AID2798]; assay type: functional
T3 sequence (Q9Y239 whole entry): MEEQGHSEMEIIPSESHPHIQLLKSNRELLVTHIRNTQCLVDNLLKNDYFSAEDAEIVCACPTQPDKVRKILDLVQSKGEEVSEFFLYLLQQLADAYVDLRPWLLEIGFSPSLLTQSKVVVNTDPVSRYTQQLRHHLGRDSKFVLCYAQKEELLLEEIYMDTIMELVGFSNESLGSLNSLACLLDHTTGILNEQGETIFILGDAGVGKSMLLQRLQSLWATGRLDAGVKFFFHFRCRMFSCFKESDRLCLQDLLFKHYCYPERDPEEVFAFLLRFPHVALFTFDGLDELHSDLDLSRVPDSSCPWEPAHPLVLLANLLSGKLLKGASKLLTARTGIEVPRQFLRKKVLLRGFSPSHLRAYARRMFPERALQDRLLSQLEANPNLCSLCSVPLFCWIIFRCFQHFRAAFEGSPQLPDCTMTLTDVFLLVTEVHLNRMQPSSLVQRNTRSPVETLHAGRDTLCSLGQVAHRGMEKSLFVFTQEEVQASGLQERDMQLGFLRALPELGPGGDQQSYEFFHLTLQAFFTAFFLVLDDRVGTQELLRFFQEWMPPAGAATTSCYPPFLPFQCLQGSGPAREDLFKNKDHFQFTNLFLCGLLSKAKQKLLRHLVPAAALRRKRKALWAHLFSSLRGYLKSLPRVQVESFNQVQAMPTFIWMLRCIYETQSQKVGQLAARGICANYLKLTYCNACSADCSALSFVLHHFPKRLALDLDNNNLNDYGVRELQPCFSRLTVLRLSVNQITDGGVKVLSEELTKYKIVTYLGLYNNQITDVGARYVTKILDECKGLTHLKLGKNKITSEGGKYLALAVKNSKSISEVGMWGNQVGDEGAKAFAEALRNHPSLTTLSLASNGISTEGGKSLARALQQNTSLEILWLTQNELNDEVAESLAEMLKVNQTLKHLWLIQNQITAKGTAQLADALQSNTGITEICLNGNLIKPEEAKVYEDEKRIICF

HEK293 [4] = experiment: SAR analysis of compounds that are cytotoxic to HEK293 - Set 2. [Related pubchem assays (depositor defined):AID1575, AID1578, AID1849, AID2001, AID2333, AID2334, AID2335, AID2337, AID2800]; assay type: functional, cell-based; details: Homo sapiens
Streptococcus = experiment: GAS UMAA2166 growth inhibition – luminescence, BacTiterGlo, counter-screen for streptokinase expression inhibitor project, dose response (AID 1915); assay type: functional, organism-based;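 also: potency for reduction of bacterial viability or growth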
Streptokinase A = biological target: T4, Streptokinase A (Streptococcus pyogenes serotype M1, UniProt P10520); experiment: viability-normalized secreted streptokinase activity reduction – plasminogen activation absorbance, OD405, dose response (AID 1914); assay type: functional, Streptococcus pyogenes M1 GAS;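 also: secreted streptokinase activity via plasminogen activation per viability signal from cell pellet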
T4 sequence (P10520 whole entry): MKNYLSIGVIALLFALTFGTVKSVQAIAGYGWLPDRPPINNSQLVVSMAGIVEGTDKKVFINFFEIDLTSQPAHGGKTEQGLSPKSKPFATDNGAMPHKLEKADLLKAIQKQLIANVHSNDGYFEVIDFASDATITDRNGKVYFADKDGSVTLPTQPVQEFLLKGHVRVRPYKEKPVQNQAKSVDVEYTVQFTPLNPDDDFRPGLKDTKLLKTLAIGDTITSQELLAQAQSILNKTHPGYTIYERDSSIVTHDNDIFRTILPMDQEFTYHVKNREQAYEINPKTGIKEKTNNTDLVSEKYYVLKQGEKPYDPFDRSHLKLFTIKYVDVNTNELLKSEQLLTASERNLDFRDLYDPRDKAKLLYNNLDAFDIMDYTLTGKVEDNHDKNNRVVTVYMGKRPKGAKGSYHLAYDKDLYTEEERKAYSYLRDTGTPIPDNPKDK

Interleukin-8 [5] = biological target: T1, Interleukin-8; experiment: SAR analysis of GM-Tri-DAP induced IL-8 secretion in MCF-7/NOD1 cells - Set 2. [Related pubchem assays (depositor defined):AID1575, AID1578, AID2333]; assay type: functional, cell-based
[6] = biological target: T3, Nucleotide-binding oligomerization domain-containing protein 1; experiment: SAR analysis of NF-kappaB dependent luciferase using DAP as an inducer - Set 2. [Related pubchem assays (depositor defined):AID1566, AID1575, AID1578, AID1579, AID1849, AID1852, AID2264]; assay type: functional
[7] = system: Streptococcus sp. 'group A'; experiment: Streptococcus pyogenes SK(-)GAS viability under kanamycin – luminescence, BacTiterGlo, confirmation, counter-screen for streptokinase expression inhibitor project, dose response (AID 1900); assay type: functional, organism-based
Tumor necrosis factor = Tumor necrosis factor (Homo sapiens, UniProt P01375); experiment: analog potency on TNFa NF-kB signaling – cell-based, set 3, SAR follow-up (AID 2801); assay type: functional
Chain of Tumor necrosis factor (P01375 whole entry): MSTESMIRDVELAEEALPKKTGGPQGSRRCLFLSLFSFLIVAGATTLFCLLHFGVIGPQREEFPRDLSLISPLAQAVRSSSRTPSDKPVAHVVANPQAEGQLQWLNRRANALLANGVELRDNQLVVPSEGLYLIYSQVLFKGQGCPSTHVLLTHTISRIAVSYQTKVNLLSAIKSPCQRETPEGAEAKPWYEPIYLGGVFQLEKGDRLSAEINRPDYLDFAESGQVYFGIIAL

HEK293 [8] = experiment: SAR analysis of compounds that are cytotoxic to HEK293 - Set 3. [Related pubchem assays (depositor defined):AID1575, AID1578, AID1848, AID1849, AID2001, AID2333, AID2334, AID2335, AID2337, AID2469]; assay type: functional, cell-based; details: Homo sapiens
[9] = biological target: T3, Nucleotide-binding oligomerization domain-containing protein 1; experiment: SAR analysis of compounds that inhibit NOD1 - Set 3. [Related pubchem assays (depositor defined):AID1566, AID1575, AID1578, AID1849, AID1852, AID2333, AID2335, AID2466]; assay type: functional
[10] = biological target: T2, Nucleotide-binding oligomerization domain-containing protein 2; experiment: inhibition of MDP-driven NOD2 NF-kB reporter – cell-based, set 3, SAR follow-up (AID 2799); assay type: functional
[11] = biological target: Intestinal-type alkaline phosphatase (Homo sapiens, UniProt P09923); experiment: inhibition of human intestinal alkaline phosphatase – biochemical, dose response (AID 488876); assay type: functional
Chain of Intestinal-type alkaline phosphatase (Homo sapiens, UniProt P09923) (P09923 whole entry): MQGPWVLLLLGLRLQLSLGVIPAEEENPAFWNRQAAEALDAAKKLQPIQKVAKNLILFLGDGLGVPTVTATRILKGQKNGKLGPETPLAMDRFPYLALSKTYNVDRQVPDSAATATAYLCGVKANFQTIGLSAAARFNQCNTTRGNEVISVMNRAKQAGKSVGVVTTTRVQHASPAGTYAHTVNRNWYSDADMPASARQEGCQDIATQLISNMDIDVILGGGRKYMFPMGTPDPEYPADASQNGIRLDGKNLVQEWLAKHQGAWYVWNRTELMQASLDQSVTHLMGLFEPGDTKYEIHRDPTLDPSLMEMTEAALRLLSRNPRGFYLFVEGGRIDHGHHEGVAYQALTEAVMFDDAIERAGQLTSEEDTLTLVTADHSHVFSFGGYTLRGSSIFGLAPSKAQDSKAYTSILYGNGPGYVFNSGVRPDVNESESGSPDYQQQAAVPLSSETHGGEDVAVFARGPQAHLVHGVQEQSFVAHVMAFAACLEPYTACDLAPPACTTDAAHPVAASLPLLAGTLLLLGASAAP

[12] = biological target: Intestinal-type alkaline phosphatase (Mus musculus, UniProt P24822); experiment: PubChem AID 488785; assay type: functional
Chain of Intestinal-type alkaline phosphatase (Mus musculus, UniProt P24822) (P24822 whole entry): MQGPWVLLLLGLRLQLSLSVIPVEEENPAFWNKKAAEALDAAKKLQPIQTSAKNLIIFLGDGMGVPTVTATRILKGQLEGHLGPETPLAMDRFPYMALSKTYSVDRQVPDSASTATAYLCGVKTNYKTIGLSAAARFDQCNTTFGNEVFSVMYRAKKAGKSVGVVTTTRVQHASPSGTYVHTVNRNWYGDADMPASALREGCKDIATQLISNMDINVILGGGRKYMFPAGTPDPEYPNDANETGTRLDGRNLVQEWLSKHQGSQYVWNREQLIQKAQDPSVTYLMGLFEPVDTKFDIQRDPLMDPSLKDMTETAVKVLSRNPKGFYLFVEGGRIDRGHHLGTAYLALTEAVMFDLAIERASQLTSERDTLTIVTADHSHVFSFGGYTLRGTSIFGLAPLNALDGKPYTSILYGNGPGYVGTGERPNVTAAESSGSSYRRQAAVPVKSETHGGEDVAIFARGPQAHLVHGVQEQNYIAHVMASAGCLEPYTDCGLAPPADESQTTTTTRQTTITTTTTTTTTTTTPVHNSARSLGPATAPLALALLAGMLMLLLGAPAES

[13] = biological target: T5, Heat shock factor protein 1 (Mus musculus, UniProt P38532); experiment: decrease of HSF1-responsive luciferase luminescence – cell-based, NIH3T3, dose retest, confirmation (AID 2382); assay type: functional;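 also: NIH3T3 fibroblasts with HSF1-driven luciferase reporter stressed by proteasome inhibitor MG132; luminescence from HSF1-driven luciferase expression after 8 hours of MG132 stress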
T5 sequence (P38532 whole entry): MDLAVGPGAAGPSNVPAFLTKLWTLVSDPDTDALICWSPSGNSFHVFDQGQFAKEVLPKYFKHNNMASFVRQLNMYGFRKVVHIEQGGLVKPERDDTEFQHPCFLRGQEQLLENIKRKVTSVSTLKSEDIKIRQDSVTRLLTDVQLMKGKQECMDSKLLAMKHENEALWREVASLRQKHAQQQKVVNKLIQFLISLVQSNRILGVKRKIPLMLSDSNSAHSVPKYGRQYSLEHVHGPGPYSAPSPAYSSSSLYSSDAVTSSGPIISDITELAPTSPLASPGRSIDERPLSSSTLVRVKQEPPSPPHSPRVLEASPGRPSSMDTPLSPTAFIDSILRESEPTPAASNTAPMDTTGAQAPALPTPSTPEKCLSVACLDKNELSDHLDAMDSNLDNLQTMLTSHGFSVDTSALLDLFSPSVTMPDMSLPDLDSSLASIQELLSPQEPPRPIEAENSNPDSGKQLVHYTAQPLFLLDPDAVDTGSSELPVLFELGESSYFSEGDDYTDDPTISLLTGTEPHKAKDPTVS

[14] = biological target: T6, Alkaline phosphatase, tissue-nonspecific isozyme (Homo sapiens, UniProt P05186); experiment: TNAP enzyme inhibition by screening hits, dose response, selectivity assay for mouse IAP inhibitor project, biochemical, human TNAP, uHTS hits (AID 488906); assay type: functional
T6 sequence (P05186 whole entry): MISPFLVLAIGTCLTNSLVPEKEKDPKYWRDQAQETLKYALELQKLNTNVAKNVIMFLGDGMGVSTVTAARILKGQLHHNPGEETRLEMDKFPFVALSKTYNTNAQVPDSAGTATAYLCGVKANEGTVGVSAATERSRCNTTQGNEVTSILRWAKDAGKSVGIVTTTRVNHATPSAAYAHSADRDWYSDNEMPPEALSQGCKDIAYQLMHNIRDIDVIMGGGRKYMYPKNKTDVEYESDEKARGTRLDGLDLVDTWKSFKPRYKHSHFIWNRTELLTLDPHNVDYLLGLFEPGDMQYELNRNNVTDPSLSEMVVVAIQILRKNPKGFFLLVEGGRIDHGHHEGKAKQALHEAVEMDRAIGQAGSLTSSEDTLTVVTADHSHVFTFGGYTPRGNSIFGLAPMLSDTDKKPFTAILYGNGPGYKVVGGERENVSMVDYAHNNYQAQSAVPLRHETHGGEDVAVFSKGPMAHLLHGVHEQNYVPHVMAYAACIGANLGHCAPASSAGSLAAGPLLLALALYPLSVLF

Compound: CCCCn1c(SCC(=O)c2ccccc2)nc2c1c(=O)[nH]c(=O)n2C
- IC50 (Interleukin-8 [1]): > 25 µM (inactive)
- IC50 [2]: > 20 µM (inactive)
- IC50 [3]: > 20 µM (inactive)
- IC50 (HEK293 [4]): > 20 µM (inactive)
- EC50 (Streptococcus): 18.4 µM (active)
- EC50 (Streptokinase A): > 150 µM (not active)
- IC50 (Interleukin-8 [5]): > 25 µM (inactive)
- IC50 [6]: > 25 µM (inactive)
- EC50 [7]: 3.37 µM (active)
- IC50 (Tumor necrosis factor): > 20 µM (inactive)
- IC50 (HEK293 [8]): > 20 µM (inactive)
- IC50 [9]: > 20 µM (inactive)
- IC50 [10]: > 20 µM (inactive)

Compound: CCn1cc(CN2CCC(C(=O)Nc3cccc(-c4cccc(Cl)c4)c3)CC2)c(C)n1
- IC50 [11]: > 100 µM (inactive)
- IC50 [12]: 12.8 µM (active)
- EC50 [13]: > 195 µM (not active)
- IC50 [14]: > 100 µM (inactive)
